Source: patent US11446287B2, “Compounds and methods for EP300 or CBP modulation and indications therefor” (Opna Immuno-Oncology SA, priority 2019, dated 2022)

Molecular target: T1, Recombinant human EP300 containing the bromodomain (EP300-BD (1040-1161)) (Homo sapiens, UniProt Q09472)
T1 construct: Recombinant human EP300 bromodomain (EP300-BD (1040-1161)); made in house; host or cells: E. coli BL21-CodonPlus (DE3), modified pET vector
T1 sequence (Q09472 1040-1161): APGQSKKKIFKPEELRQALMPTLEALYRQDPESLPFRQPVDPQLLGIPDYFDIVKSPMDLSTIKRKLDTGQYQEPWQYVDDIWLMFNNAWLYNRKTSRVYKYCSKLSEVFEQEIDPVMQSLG
Experiment: EP300 Alphascreen binding assay
Method: EP300 Alphascreen Binding Assay
Binding of compounds of Formula (I) with EP300 was assessed using Alphascreen™ binding assay. The inhibition of the interaction between the EP300 bromodomain and its acetylated target protein was measured quantitatively using recombinant EP300 protein, an acetylated Histone 3 peptide and AlphaScreen™ technology. In absence of inhibition of the EP300 protein bound to AlphaScreen™ nickel chelate acceptor beads can interact with the acetylated Histone 3 peptide which is immobilized by the AlphaScreen™ Streptavidin coated beads. This interaction brings donor and acceptor beads in proximity. The close proximity allows the singlet oxygen produced by laser excitation of the donor beads to reach the acceptor beads and generate a luminescence signal. EP300 inhibitors result in a decrease in the proximity signal through an inhibition of the EP300—acetylated peptide interaction.
Recombinant human EP300 containing the bromodomain (EP300-BD (1040-1161)) was prepared and purified as described in protein expression and purification session. The peptide is human Histone H345-64K56Ac-Biotin (Anaspec CA, USA).
Protocol for EP300 assay: All components were prepared in buffer composed of 50 mM HEPES pH 7.5, 50 mM NaCl, 0.01% BSA, 0.01% Triton X-100, 2 mM DTT. Test compounds and DMSO vehicle were diluted 1:50 in buffer and a 4 μL volume is transferred to an Alphaplate. 5.5 μL of EP300 protein and 5.5 μL of peptide were added to wells containing 4 μL of various concentrations of test compounds of Formula (I) or DMSO vehicle in an Alphaplate (PerkinElmer GA, USA) and incubated for 1 hour at room temperature. 5 μL donor and acceptor bead mixture was then added with final concentrations of 7.5 μg/ml. 60 minutes after bead addition, Alpha signal is read on the Envision spectrometer (λEx 680 nm, λEm 520-620 nm). Final concentrations of bromodomain proteins and peptide are as shown below.
All data were normalized to the mean of 16 high and 16 low control wells on each plate. A four parameter curve fit of the following formula was then applied: Y=A+((B−A)/(1+((C/x)^D))) Where ‘A’ is the minimum, ‘B’ is the maximum, ‘C’ is the IC50 and ‘D’ is the Hill slope. Protein Expression and Purification
Recombinant human EP300 bromodomain (EP300-BD (1040-1161)) was expressed in E. coli cells (in a modified pET vector) with an N-terminal six-His tag and purified using a combination of both IMAC (Ni-affinity) and size exclusion chromatography steps.
Recombinant EP300 protein was expressed using the E. coli strain BL21-CodonPlus (DE3) (Agilent Technologies CA, USA). Cells were grown in Terrific Broth (TB) media to an OD600 of 0.7 at 37° C. at which temperature was reduced to 18° C., protein was induced with 1.0 mM isopropyl-β-D-thiogalactopyranoside (“IPTG”) for 20 hours and harvested by centrifugation at 8500×g for 20 minutes. Cells were re-suspended in 0.1M K2PO4 pH 8.0, 250 mM NaCl, 10% Glycerol, 0.75% NP-40, 25 mM Imidazole, with 0.2 mg/ml Lysozyme, 0.2 mM phenylmethanesulfonyl fluoride (“PMSF”), 25 μg/ml DNase I, incubated on ice for 30 minutes and lysed with a cell disruptor (MicroFluidics MA, USA). The lysate was clarified by centrifugation at 20,000×g for 1 hour. The protein was captured with Ni-NTA resin (Life Technologies, USA). Contaminating proteins were washed off with 50 mM HEPES pH 7.5, 500 mM NaCl, and 5% Glycerol. Following 3× wash steps, protein was eluted step wise using 10, 25, 50, 100, 150, and 250 mM Imidazole in 50 mM HEPES pH 7.5, 500 mM NaCl, and 5% glycerol. The protein was further purified using a size exclusion column (26/600 Superdex 200, GE Biosciences NJ, USA) in 10 mM HEPES pH 7.5, […].

SMILES	IC50
CCCOc1cc(C(=O)O)cc(OCCC)c1-n1cc(CC2CCC2)c2ncc(-c3c(C)noc3C)cc21 [P-0127, 4-(3-(cyclobutylmethyl)-6-(3,5-dimethylisoxazol-4-yl)-1H-pyrrolo[3,2-b]pyridin-1-yl)-3,5-dipropoxybenzoic acid]	0.0001 to 1 µM
Cc1noc(C)c1-c1cnc2c(Cc3cccc(Cl)c3)cn(-c3c(Cl)cc(C(=O)O)cc3Cl)c2c1 [P-0128, 3,5-dichloro-4-(3-(3-chlorobenzyl)-6-(3,5-dimethylisoxazol-4-yl)-1H-pyrrolo[3,2-b]pyridin-1-yl)benzoic acid]	0.0001 to 1 µM
Cc1noc(C)c1-c1cnc2c(C(=O)c3cccc(OC(F)F)c3)cn(-c3c(Cl)cc(C(=O)O)cc3Cl)c2c1 [P-0129, 3,5-dichloro-4-(3-(3-(difluoromethoxy)benzoyl)-6-(3,5-dimethylisoxazol-4-yl)-1H-pyrrolo[3,2-b]pyridin-1-yl)benzoic acid]	0.0001 to 1 µM
Cc1noc(C)c1-c1cnc2c(CC3CCC3)cn(-c3ccc([N+](=O)[O-])cc3F)c2c1 [P-0130, 4-(3-(cyclobutylmethyl)-1-(2-fluoro-4-nitrophenyl)-1H-pyrrolo[3,2-b]pyridin-6-yl)-3,5-dimethylisoxazole]	8 to 1000 µM
Cc1noc(C)c1-c1cnc2c(Cc3ccccc3Cl)cn(-c3c(Cl)cc(C(=O)O)cc3Cl)c2c1 [P-0131, 3,5-dichloro-4-(3-(2-chlorobenzyl)-6-(3,5-dimethylisoxazol-4-yl)-1H-pyrrolo[3,2-b]pyridin-1-yl)benzoic acid]	0.0001 to 1 µM
Cc1noc(C)c1-c1cnc2c(Cc3cccc(OCc4ccccc4)c3)cn(-c3c(Cl)cc(C(=O)O)cc3Cl)c2c1 [P-0132, 4-(3-(3-(benzyloxy)benzyl)-6-(3,5-dimethylisoxazol-4-yl)-1H-pyrrolo[3,2-b]pyridin-1-yl)-3,5-dichlorobenzoic acid]	0.0001 to 1 µM
Cc1noc(C)c1-c1cnc2c(C(=O)c3cccc(OCc4ccccc4)c3)cn(-c3c(Cl)cc(C(=O)O)cc3Cl)c2c1 [P-0133, 4-(3-(3-(benzyloxy)benzoyl)-6-(3,5-dimethylisoxazol-4-yl)-1H-pyrrolo[3,2-b]pyridin-1-yl)-3,5-dichlorobenzoic acid]	0.0001 to 1 µM
COc1ccc(-n2cc(CC3CCC3)c3ncc(-c4c(C)noc4C)cc32)cn1 [P-0134, 4-(3-(cyclobutylmethyl)-1-(6-methoxypyridin-3-yl)-1H-pyrrolo[3,2-b]pyridin-6-yl)-3,5-dimethylisoxazole]	1 to 8 µM
COc1cc(C(=O)O)cc(OCc2ccccc2)c1-c1cn([C@@H](C)c2ccccn2)c2ncc(-c3c(C)noc3C)cc12 [P-0135, (S)-3-(benzyloxy)-4-(5-(3,5-dimethylisoxazol-4-yl)-1-(1-(pyridin-2-yl)ethyl)-1H-pyrrolo[2,3-b]pyridin-3-yl)-5-methoxybenzoic acid]	0.0001 to 1 µM
COc1c(C(=O)O)cccc1-c1cn(C(C)c2ccccc2)c2cc(-c3c(C)noc3C)cnc12 (centres unmarked) [P-0136, 3-(6-(3,5-dimethylisoxazol-4-yl)-1-(1-phenylethyl)-1H-pyrrolo[3,2-b]pyridin-3-yl)-2-methoxybenzoic acid]	0.0001 to 1 µM
Cc1noc(C)c1-c1cnc2c(c1)c(-c1ccc(C(=O)O)cc1OC1COC1)cn2[C@@H](C)c1ccccn1 [P-0137, (S)-4-(5-(3,5-dimethylisoxazol-4-yl)-1-(1-(pyridin-2-yl)ethyl)-1H-pyrrolo[2,3-b]pyridin-3-yl)-3-(oxetan-3-yloxy)benzoic acid]	0.0001 to 1 µM
Cc1noc(C)c1-c1cnc2c(c1)c(-c1ccc(C(=O)O)cc1OCC1CC1)cn2[C@@H](C)c1ccccn1 [P-0138, (S)-3-(cyclopropylmethoxy)-4-(5-(3,5-dimethylisoxazol-4-yl)-1-(1-(pyridin-2-yl)ethyl)-1H-pyrrolo[2,3-b]pyridin-3-yl)benzoic acid]	0.0001 to 1 µM
Cc1noc(C)c1-c1cnc2c(c1)c(-c1ccc(C(=O)O)cc1OCc1ccccc1)cn2[C@@H](C)c1ccccn1 [P-0139, (S)-3-(benzyloxy)-4-(5-(3,5-dimethylisoxazol-4-yl)-1-(1-(pyridin-2-yl)ethyl)-1H-pyrrolo[2,3-b]pyridin-3-yl)benzoic acid]	0.0001 to 1 µM
COc1ccc(C(=O)O)cc1-c1cn(C(C)c2ccccc2)c2cc(-c3c(C)noc3C)cnc12 (centres unmarked) [P-0140, 3-(6-(3,5-dimethylisoxazol-4-yl)-1-(1-phenylethyl)-1H-pyrrolo[3,2-b]pyridin-3-yl)-4-methoxybenzoic acid]	0.0001 to 1 µM
Cc1noc(C)c1-c1cnc2c(-c3cc(C(=O)O)ccc3Cl)cn(C(C)c3ccccc3)c2c1 (centres unmarked) [P-0141, 4-chloro-3-(6-(3,5-dimethylisoxazol-4-yl)-1-(1-phenylethyl)-1H-pyrrolo[3,2-b]pyridin-3-yl)benzoic acid]	0.0001 to 1 µM
COc1cc(C(=O)O)ccc1-c1cn([C@@H](C)c2ccccn2)c2cc(-c3c(C)noc3C)cnc12 [P-0142, (S)-4-(6-(3,5-dimethylisoxazol-4-yl)-1-(1-(pyridin-2-yl)ethyl)-1H-pyrrolo[3,2-b]pyridin-3-yl)-3-methoxybenzoic acid]	0.0001 to 1 µM
Cc1noc(C)c1-c1cnc2c(CC3CCC3)cn(-c3ccc(O)nc3)c2c1 [P-0143, 5-(3-(cyclobutylmethyl)-6-(3,5-dimethylisoxazol-4-yl)-1H-pyrrolo[3,2-b]pyridin-1-yl)pyridin-2-ol]	1 to 8 µM
COc1cc(C(=O)O)cc(O)c1-c1cn([C@@H](C)c2ccccn2)c2ncc(-c3c(C)noc3C)cc12 [P-0144, (S)-4-(5-(3,5-dimethylisoxazol-4-yl)-1-(1-(pyridin-2-yl)ethyl)-1H-pyrrolo[2,3-b]pyridin-3-yl)-3-hydroxy-5-methoxybenzoic acid]	0.0001 to 1 µM
Cc1noc(C)c1-c1cnc2c(c1)c(-c1ccnc(O)c1)cn2[C@@H](C)c1ccccn1 [P-0145, (S)-4-(5-(3,5-dimethylisoxazol-4-yl)-1-(1-(pyridin-2-yl)ethyl)-1H-pyrrolo[2,3-b]pyridin-3-yl)pyridin-2-ol]	1 to 8 µM
COc1cc(C(=O)O)cc(OC)c1-c1cn([C@@H](C)c2ccccn2)c2cc(-c3c(C)noc3C)cnc12 [P-0146, (S)-4-(6-(3,5-dimethylisoxazol-4-yl)-1-(1-(pyridin-2-yl)ethyl)-1H-pyrrolo[3,2-b]pyridin-3-yl)-3,5-dimethoxybenzoic acid]	1 to 8 µM
CCOc1cc(C(=O)O)cc(OCC)c1-c1cn([C@@H](C)c2ccccn2)c2ncc(-c3c(C)noc3C)cc12 [P-0147, (S)-4-(5-(3,5-dimethylisoxazol-4-yl)-1-(1-(pyridin-2-yl)ethyl)-1H-pyrrolo[2,3-b]pyridin-3-yl)-3,5-diethoxybenzoic acid]	0.0001 to 1 µM
CC[C@@H](c1ccccn1)n1cc(-c2cc(C(=O)O)ccc2Cl)c2ncc(-c3c(C)noc3C)cc21 [P-0148, (S)-4-chloro-3-(6-(3,5-dimethylisoxazol-4-yl)-1-(1-(pyridin-2-yl)propyl)-1H-pyrrolo[3,2-b]pyridin-3-yl)benzoic acid]	0.0001 to 1 µM
Cc1noc(C)c1-c1cc2c(cn1)c(CC1CCC1)cn2-c1c(Cl)cc(C(=O)O)cc1Cl [P-0149, 3,5-dichloro-4-(3-(cyclobutylmethyl)-6-(3,5-dimethylisoxazol-4-yl)-1H-pyrrolo[3,2-c]pyridin-1-yl)benzoic acid]	0.0001 to 1 µM
